Data published in ChEMBL document CHEMBL6103653, “Alstolarsines A-E, Indoline Alkaloids with Two Different Carbon Skeletons from Alstonia scholaris” (J Nat Prod, 2025).

Assays:
[1] = target: T1, ATP-citrate synthase (Homo sapiens) (UniProt P53396); assay: Inhibition of ATP citrate lyase (unknown origin) at 20 microg/ml by ADP-Glo assay relative to control; conditions: dose 20.0 µg/ml
T1 sequence (whole entry): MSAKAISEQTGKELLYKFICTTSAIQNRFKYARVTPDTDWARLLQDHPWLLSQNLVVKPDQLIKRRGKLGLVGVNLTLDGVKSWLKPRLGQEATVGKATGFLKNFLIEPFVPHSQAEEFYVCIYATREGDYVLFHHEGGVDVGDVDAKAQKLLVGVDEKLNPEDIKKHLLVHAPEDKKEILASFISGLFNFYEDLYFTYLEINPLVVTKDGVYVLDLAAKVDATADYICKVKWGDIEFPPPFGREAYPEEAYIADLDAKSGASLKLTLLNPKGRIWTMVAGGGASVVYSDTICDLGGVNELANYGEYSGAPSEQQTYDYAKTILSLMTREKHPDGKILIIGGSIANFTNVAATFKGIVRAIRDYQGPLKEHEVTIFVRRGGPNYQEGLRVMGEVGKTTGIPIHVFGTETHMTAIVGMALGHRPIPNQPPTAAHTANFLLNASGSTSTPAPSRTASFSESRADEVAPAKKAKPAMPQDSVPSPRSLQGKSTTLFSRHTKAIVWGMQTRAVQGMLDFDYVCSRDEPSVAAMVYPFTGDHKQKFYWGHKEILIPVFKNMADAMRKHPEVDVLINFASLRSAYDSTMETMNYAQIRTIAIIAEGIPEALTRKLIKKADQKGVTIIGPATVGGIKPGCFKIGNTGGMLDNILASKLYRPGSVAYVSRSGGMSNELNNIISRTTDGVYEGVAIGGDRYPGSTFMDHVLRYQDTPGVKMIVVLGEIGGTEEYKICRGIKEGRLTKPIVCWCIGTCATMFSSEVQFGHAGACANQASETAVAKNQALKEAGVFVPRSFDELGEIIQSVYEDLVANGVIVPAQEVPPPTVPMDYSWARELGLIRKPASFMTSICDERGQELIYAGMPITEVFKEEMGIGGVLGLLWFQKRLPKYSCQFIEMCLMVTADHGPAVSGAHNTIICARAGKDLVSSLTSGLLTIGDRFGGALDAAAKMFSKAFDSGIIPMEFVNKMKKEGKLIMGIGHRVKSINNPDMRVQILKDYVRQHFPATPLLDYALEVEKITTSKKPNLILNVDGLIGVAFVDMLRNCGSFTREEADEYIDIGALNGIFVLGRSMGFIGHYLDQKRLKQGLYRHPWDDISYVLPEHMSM

Homo sapiens = species: Homo sapiens; assay: Inhibition of DRAK2 autophosphorylation (unknown origin) at 20 microg/ml by ADP-Glo assay relative to control; conditions: dose 20.0 µg/ml

Row | Compound | inhibition [1] [%] | inhibition (Homo sapiens) [%]
1 | C/C=C1/C[N@@+]2(C)CC[C@@]34c5ccccc5N[C@]32C(=O)[C@@H]2COC[C@@]4(C(=O)[O-])[C@H]12 | 49.2 | 47.7
2 | C/C=C1/C[N@@+]2(C)CC[C@@]34c5ccccc5N[C@]32C(=O)[C@H]2[C@@H]1[C@]4(C(=O)[O-])CO[C@@H]2C | 17 | 49.2
3 | C/C=C1/C[N@@+]2(C)CC[C@@]34c5ccccc5N[C@]32C(=O)[C@]2(C)OC[C@@]4(C(=O)[O-])[C@H]12 | 5.5 | 4.5
4 | C/C=C1/C[N@@+]2(C)CC[C@@]34c5ccccc5N[C@]32C(=O)[C@@H]2[C@H](C)OC[C@@]4(C(=O)[O-])[C@H]12 | 5.1 | 16.5
